Source: ChEMBL document CHEMBL1201862, “PubChem BioAssay data set” (2004)
Activity calls are given as the source filed them.

What was measured:
[1] = target: Cytochrome P450 3A4 (Homo sapiens, UniProt P08684);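 note: CYP3A4 tested as one member of a cytochrome P450 panel screen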
[2] = target: Cytochrome P450 2C9 (Homo sapiens, UniProt P11712)
[3] = target: T1, Low molecular weight phosphotyrosine protein phosphatase (Homo sapiens, UniProt P24666); format: functional; conditions: read-out: IC50_Mean
T1 sequence (P24666 whole entry): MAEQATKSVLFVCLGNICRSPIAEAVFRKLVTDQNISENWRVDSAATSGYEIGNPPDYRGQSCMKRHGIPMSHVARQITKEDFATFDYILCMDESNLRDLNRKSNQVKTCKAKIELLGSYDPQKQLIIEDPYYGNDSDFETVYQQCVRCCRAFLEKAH

[4] = target: Cytochrome P450 2C19 (Homo sapiens, UniProt P33261); experiment: Cytochrome panel assay with activity outcomes. Panel member name: p450-cyp2c19 Compounds with AC50 equal or less than 10 uM are considered active; format: functional; conditions: read-out: AC50
Chain of Cytochrome P450 2C19 (P33261 whole entry, the tested form may be a part): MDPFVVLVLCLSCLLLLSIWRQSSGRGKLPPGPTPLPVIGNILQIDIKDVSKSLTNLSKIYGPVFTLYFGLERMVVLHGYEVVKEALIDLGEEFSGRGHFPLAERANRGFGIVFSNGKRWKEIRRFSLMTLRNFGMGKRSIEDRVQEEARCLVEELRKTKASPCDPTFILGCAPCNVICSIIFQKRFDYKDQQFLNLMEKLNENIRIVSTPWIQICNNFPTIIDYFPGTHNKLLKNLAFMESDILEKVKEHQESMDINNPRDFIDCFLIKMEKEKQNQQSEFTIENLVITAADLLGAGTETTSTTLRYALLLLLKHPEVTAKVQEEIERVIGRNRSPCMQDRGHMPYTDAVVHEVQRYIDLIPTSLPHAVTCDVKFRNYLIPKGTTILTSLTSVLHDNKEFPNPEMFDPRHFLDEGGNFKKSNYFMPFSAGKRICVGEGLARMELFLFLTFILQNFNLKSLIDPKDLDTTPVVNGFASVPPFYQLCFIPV

[5] = target: T2, Polyadenylate-binding protein 1 (Homo sapiens, UniProt P11940); experiment: MLLE domain peptide-binding blockers, IC50 – biochemical, fluorescence polarization, FITC-PAM2 peptide, dose response (AID 602259); format: functional; conditions: read-out: IC50_Mean
T2 sequence (P11940 whole entry, the tested form may be a part): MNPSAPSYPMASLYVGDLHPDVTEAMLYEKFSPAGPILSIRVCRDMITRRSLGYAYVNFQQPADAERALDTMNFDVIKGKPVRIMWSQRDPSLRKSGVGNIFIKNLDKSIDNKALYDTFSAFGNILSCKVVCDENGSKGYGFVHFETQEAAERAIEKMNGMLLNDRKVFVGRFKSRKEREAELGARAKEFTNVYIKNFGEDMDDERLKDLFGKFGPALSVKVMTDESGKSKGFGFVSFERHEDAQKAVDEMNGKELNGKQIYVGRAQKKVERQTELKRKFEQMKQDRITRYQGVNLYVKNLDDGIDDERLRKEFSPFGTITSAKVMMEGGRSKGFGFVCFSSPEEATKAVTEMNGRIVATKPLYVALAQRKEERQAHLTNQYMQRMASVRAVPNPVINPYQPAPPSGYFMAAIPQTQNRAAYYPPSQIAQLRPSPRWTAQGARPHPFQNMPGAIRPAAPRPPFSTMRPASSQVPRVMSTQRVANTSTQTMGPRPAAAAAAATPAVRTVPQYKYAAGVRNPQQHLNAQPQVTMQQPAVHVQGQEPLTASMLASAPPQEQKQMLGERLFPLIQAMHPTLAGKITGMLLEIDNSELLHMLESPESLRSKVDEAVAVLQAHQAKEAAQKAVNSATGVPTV

[6] = target: T3, Sentrin-specific protease 6 (Homo sapiens, UniProt Q9GZR1); format: functional;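 note: Luminescence-based dose-response confirmatory assay of SENP6 inhibition, following up an ultra-high-throughput screen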
T3 sequence (Q9GZR1 whole entry): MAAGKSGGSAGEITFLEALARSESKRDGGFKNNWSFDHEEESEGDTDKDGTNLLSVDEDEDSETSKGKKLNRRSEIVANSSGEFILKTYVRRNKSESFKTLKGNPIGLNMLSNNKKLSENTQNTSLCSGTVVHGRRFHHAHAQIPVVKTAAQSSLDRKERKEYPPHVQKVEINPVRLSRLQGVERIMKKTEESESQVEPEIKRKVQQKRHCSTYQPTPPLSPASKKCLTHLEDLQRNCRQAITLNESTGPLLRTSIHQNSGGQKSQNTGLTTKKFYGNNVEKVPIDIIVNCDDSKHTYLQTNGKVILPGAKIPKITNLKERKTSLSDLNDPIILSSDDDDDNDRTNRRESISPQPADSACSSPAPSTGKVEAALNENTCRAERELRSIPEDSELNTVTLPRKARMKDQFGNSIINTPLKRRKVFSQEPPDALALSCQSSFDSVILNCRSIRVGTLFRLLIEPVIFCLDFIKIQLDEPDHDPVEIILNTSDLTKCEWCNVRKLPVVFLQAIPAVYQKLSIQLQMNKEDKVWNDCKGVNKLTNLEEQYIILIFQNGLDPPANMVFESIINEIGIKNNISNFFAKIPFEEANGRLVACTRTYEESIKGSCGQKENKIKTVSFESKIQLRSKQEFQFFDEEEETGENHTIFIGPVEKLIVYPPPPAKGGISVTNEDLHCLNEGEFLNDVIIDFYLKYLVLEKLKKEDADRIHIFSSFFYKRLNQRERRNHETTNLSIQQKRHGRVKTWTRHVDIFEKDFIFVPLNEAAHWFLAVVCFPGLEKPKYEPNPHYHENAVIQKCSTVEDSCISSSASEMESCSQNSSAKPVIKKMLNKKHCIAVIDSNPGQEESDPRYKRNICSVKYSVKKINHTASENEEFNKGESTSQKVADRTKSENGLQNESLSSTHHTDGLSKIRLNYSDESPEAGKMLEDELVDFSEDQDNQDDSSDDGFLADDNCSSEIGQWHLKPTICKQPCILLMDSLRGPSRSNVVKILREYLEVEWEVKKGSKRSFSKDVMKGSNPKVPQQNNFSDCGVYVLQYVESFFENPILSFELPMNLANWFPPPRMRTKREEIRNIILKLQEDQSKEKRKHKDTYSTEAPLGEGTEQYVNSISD

[7] = NIH-3T3 fibroblast cytotoxicity, dose response, cytotoxicity control, cell-based, fluorescence, Alamar Blue, secondary assay (AID 2327); format: functional;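 note: NIH-3T3 mouse fibroblasts cultured with fluconazole at 8 µg/mL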
[8] = target: T4, Caspase-3 (Homo sapiens, UniProt P42574); format: functional;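 note: Dose-response selectivity test against caspase-3 for candidate inhibitors of sentrin-specific proteases (SENPs)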
T4 sequence (P42574 whole entry): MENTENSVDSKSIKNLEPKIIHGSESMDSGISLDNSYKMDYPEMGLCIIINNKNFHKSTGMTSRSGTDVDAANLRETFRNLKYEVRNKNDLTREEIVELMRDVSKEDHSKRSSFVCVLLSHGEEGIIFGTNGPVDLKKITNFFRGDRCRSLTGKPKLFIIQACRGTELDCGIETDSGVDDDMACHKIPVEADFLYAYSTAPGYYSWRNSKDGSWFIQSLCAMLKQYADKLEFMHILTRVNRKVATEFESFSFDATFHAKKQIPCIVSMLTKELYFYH

[9] = target: T2, Polyadenylate-binding protein 1; experiment: MLLE binding blockers, Cy5 peptide tracer – biochemical, fluorescence polarization, Cy5-PAM2 peptide, secondary, miRNA deadenylation inhibitor project, dose response (AID 602260); format: functional; conditions: read-out: IC50_Mean
[10] = target: T5, Sentrin-specific protease 8 (Homo sapiens, UniProt Q96LD8); format: functional;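 note: luminescence read-out of SENP8 inhibition, dose-response confirmation following an ultra-high-throughput screen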
T5 sequence (Q96LD8 whole entry): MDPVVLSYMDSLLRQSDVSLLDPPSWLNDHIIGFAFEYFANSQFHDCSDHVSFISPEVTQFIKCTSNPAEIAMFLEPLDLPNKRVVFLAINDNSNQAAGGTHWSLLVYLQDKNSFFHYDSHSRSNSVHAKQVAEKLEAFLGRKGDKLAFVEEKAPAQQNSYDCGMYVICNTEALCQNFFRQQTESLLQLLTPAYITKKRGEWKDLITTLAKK

[11] = fluconazole-exposed Candida albicans growth modulators – fluorescence, retest, confirmation (AID 2467); format: functional, cell-based
[12] = target: T6, Sentrin-specific protease 7 (Homo sapiens, UniProt Q9BQF6); format: functional;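 note: Luminescence-based dose-response confirmation of ultra-high-throughput screening hits, measuring inhibition of SENP7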
T6 sequence (Q9BQF6 whole entry): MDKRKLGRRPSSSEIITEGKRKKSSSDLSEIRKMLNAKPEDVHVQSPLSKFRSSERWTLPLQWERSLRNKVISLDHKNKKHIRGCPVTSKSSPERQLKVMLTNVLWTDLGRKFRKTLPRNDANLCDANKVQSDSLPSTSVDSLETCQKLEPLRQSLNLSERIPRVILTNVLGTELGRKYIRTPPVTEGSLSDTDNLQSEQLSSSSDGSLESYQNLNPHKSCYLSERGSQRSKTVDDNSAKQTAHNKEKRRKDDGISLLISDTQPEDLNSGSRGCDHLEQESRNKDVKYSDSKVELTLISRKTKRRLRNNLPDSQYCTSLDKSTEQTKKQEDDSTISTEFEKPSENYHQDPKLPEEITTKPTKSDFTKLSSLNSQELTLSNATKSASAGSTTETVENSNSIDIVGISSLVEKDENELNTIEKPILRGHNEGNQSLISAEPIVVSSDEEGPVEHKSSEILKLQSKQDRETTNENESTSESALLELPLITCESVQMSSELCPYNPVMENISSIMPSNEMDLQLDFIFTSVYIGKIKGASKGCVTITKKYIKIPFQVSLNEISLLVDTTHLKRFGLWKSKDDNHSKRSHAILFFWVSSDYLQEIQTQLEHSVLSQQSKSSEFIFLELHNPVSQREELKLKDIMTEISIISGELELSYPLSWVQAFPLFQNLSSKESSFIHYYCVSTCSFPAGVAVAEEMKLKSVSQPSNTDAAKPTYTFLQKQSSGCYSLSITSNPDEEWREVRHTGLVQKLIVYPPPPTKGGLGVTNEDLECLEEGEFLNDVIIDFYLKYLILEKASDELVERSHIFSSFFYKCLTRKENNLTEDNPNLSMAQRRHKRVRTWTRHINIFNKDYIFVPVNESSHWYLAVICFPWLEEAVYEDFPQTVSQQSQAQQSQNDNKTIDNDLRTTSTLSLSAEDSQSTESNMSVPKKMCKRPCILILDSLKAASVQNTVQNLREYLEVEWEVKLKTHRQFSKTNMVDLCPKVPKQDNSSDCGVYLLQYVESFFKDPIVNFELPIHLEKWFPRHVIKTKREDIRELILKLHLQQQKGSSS

[13] = target: T1, Low molecular weight phosphotyrosine protein phosphatase; format: functional; conditions: read-out: IC50_Mean; remark: listed apart in the source
[14] = target: T7, Apoptotic protease-activating factor 1 (Homo sapiens, UniProt O14727); experiment: SAR analysis of small molecule Activators of Apaf-1 in a Fluorescent assay.; format: functional; conditions: read-out: EC50_Mean;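 note: caspase-3 cleavage of fluorogenic Rh110 DEVD substrate downstream of apoptosome activation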
T7 sequence (O14727 whole entry): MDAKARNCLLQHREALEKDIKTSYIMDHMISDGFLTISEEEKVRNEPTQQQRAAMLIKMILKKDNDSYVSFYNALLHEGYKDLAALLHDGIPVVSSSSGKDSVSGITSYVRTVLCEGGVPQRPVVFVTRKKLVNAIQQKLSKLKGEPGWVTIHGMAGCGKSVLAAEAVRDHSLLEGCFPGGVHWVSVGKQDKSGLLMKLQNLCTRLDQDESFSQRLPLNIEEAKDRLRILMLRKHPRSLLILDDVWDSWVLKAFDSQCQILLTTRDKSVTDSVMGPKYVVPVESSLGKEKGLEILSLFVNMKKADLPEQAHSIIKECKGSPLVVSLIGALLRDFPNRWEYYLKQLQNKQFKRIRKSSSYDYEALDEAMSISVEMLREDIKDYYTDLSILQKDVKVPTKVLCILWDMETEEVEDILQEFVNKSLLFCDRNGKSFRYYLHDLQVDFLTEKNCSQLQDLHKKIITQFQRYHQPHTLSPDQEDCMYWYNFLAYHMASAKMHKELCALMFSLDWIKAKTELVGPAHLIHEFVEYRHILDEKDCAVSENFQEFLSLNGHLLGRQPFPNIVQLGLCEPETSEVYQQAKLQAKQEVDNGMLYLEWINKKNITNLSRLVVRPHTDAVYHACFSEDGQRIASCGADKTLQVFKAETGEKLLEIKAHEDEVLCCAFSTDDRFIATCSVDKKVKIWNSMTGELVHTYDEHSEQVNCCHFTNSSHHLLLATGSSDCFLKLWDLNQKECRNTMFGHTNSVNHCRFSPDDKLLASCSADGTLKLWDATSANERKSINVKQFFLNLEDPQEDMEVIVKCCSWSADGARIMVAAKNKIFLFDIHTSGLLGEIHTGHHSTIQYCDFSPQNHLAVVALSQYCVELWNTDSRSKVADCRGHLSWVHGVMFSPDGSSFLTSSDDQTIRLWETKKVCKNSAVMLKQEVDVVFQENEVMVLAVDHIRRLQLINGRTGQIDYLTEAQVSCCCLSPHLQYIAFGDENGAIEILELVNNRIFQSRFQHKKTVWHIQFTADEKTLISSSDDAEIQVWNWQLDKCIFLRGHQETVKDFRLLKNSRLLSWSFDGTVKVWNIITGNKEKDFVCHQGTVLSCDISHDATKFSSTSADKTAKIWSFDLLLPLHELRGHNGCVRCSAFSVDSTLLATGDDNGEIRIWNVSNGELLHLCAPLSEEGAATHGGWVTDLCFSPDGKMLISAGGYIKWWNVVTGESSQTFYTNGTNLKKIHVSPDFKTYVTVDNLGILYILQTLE

[15] = target: Adenosylmethionine-8-amino-7-oxononanoate aminotransferase (Mycobacterium tuberculosis, UniProt P9WQ81); experiment: Mycobacterium tuberculosis BioA enzyme inhibitor Measured in Biochemical System Using Plate Reader - 2163-02_Inhibitor_Dose_CherryPick_Activity.; format: functional, Mycobacterium tuberculosis UT205
Chain of Adenosylmethionine-8-amino-7-oxononanoate aminotransferase (P9WQ81 whole entry): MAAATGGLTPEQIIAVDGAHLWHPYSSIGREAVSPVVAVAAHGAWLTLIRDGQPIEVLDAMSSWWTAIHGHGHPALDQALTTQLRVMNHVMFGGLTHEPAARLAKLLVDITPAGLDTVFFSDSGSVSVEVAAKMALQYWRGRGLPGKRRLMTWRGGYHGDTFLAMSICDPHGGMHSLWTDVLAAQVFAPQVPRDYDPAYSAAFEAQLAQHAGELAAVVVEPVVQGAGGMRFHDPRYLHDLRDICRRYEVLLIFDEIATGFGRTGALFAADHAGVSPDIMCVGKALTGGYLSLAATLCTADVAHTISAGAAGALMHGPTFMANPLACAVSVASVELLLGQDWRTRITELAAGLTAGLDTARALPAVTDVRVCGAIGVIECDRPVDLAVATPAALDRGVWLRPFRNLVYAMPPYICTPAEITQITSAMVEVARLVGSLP

[16] = target: Aryl hydrocarbon receptor (Homo sapiens, UniProt P35869); conditions: Potency;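 note: confirmatory quantitative high-throughput screen measuring activation of the AhR signaling pathway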
Chain of Aryl hydrocarbon receptor (P35869 whole entry): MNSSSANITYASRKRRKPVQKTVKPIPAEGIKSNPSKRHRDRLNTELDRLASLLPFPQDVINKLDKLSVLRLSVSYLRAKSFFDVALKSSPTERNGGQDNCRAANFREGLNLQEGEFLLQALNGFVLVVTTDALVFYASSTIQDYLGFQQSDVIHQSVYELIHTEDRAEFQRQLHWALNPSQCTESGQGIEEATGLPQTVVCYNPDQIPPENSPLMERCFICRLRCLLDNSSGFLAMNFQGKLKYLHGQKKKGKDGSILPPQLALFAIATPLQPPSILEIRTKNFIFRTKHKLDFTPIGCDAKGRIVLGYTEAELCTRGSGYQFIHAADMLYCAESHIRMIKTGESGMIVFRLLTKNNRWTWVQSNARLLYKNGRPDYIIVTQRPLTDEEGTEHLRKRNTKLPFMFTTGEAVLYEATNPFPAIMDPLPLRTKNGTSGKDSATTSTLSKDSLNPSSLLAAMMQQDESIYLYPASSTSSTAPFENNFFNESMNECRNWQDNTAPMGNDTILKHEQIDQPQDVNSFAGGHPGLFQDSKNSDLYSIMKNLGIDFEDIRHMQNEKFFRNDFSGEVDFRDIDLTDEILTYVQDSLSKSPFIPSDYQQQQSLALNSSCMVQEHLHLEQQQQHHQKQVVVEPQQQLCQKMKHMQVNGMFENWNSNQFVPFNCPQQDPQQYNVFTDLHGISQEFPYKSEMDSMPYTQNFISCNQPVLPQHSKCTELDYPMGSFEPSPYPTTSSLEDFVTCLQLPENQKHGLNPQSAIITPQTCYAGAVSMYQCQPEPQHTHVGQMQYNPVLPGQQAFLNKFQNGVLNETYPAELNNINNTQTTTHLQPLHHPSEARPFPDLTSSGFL

Chain of Cytochrome P450 2C9 (P11712 whole entry): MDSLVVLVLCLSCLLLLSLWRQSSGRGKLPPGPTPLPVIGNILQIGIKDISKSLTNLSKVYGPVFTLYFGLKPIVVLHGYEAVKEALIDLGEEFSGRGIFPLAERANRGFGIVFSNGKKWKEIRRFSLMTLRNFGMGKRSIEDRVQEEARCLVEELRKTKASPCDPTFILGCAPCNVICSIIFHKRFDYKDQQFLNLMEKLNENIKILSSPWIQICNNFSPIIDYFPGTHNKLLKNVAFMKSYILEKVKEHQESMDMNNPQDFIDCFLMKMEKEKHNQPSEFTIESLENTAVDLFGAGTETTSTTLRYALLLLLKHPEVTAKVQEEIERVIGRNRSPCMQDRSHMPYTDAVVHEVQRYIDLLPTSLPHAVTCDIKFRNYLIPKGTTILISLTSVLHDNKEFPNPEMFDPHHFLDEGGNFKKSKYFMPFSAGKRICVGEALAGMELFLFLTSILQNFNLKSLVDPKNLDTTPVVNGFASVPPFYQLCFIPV
Chain of Cytochrome P450 3A4 (P08684 whole entry): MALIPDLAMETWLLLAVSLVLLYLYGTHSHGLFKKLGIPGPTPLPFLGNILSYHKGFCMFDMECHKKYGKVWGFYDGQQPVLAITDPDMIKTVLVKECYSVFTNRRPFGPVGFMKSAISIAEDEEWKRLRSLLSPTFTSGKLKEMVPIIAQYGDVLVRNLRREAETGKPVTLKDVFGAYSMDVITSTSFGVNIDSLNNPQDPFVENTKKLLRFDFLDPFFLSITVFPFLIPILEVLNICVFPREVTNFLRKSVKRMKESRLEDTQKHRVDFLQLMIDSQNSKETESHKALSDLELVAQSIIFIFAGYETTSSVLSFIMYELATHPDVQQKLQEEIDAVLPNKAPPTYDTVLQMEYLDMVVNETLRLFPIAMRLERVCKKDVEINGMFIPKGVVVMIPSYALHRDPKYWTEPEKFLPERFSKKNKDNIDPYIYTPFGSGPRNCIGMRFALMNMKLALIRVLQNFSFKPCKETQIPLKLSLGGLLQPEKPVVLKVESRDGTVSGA

With `O=C(Nc1cccc(-c2nc3ncccc3o2)c1)c1sc2ccccc2c1Cl` the AC50 [1] was 3.98 µM (inconclusive), the AC50 [2] was 2 µM (inconclusive) and the IC50 [3] was 3.81 µM (active). For the same compound, the AC50 [4] was 0.355 µM (inconclusive).
For `Cc1[nH]n(C(N)=S)c(=O)c1/N=N/c1ccc(S(=O)(=O)N2CCCCCC2)cc1`, the IC50 [5] was > 66 µM (inactive), the IC50 [6] was 15.5 µM (active) and the EC50 [7] was > 160 µM (inactive). For the same compound, the IC50 [8] was 12.9 µM (active), the IC50 [9] was > 66 µM (inactive) and the IC50 [10] was 2.52 µM (active). The EC50 [11] was > 38 µM (not active) and the IC50 [12] was 9.68 µM (active).
In the case of `CCOC(=O)c1cnc(SSc2ncc(C(=O)OCC)c(N)n2)nc1N`, the IC50 [13] is reported as 14.5 µM (active).
For `CCS(=O)(=O)c1ccc2c(c1)NC(=O)C(C)(C(=O)O)O2` (centres undefined), the EC50 [14] was > 100 µM (inactive).
In the case of `O=C(Oc1ccc(OC(=O)N2CCOCC2)cc1)c1ccccc1`, the IC50 [6] is reported as > 100 µM (inactive), the IC50 [8] is reported as 14.8 µM (active) and the IC50 [10] is reported as > 100 µM (inactive). For the same compound, the IC50 [12] was 14.2 µM (active).
With `COc1ccc(C)cc1NC(=O)CCS(=O)(=O)c1ccc2c(c1)CC(=O)N2C` the EC50 [14] was > 100 µM (inactive).
In the case of `O=C(C1CCOCC1)N1CC[C@@H]2[C@H](CO)Nc3ccc(Br)cc3[C@@H]21`, the AC50 [15] is reported as 4.43 µM (active).
With `CC(=O)c1ccc(C(=O)N2CCCC(CCC(=O)N(C)CCc3ccccn3)C2)s1` (centres undefined) the AC50 [15] was 12.4 µM (active).
In the case of `Cc1ccc(-c2nc(NCc3cccnc3)c3ccccc3n2)cc1`, the IC50 [3] is reported as 8.04 µM (active) and the IC50 [13] is reported as 13.7 µM (active).
In the case of `COP(=S)(OC)Oc1c(Cl)cc(C)cc1Cl` [TOLCOFOS-METHYL], the AC50 [16] is reported as 79.4 µM (inconclusive).
